The values that follow come from ChEMBL document CHEMBL1157537 (J Med Chem, 2008).

Structures are written as SMILES.

Assay [1] addresses T1, Glucocorticoid receptor (Homo sapiens) (UniProt P04150).
T1 sequence (whole entry): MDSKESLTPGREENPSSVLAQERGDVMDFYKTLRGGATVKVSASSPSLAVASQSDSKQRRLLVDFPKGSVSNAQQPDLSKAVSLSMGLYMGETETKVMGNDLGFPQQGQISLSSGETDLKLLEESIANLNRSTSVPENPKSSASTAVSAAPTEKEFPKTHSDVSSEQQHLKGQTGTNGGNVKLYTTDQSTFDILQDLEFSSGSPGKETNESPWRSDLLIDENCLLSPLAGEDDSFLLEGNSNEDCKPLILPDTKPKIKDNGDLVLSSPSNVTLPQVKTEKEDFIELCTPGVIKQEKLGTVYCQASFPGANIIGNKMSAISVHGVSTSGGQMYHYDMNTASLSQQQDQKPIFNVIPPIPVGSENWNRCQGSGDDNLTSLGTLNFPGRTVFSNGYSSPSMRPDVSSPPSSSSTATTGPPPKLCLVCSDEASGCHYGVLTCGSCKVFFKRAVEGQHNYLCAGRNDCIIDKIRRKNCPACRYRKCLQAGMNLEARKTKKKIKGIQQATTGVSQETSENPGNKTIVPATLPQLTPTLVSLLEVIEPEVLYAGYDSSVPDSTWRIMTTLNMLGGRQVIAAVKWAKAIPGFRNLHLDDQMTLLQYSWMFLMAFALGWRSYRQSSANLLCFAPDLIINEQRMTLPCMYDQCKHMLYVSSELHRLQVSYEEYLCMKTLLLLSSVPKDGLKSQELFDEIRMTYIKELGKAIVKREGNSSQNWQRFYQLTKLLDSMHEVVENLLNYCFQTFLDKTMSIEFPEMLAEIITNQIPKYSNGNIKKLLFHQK
Briefly: Antagonist activity at human glucocorticoid receptor relative to Dexamethasone. In kind it is functional.

Assay [2] deals with T2, Mineralocorticoid receptor (Homo sapiens) (UniProt P08235).
T2 sequence (whole entry): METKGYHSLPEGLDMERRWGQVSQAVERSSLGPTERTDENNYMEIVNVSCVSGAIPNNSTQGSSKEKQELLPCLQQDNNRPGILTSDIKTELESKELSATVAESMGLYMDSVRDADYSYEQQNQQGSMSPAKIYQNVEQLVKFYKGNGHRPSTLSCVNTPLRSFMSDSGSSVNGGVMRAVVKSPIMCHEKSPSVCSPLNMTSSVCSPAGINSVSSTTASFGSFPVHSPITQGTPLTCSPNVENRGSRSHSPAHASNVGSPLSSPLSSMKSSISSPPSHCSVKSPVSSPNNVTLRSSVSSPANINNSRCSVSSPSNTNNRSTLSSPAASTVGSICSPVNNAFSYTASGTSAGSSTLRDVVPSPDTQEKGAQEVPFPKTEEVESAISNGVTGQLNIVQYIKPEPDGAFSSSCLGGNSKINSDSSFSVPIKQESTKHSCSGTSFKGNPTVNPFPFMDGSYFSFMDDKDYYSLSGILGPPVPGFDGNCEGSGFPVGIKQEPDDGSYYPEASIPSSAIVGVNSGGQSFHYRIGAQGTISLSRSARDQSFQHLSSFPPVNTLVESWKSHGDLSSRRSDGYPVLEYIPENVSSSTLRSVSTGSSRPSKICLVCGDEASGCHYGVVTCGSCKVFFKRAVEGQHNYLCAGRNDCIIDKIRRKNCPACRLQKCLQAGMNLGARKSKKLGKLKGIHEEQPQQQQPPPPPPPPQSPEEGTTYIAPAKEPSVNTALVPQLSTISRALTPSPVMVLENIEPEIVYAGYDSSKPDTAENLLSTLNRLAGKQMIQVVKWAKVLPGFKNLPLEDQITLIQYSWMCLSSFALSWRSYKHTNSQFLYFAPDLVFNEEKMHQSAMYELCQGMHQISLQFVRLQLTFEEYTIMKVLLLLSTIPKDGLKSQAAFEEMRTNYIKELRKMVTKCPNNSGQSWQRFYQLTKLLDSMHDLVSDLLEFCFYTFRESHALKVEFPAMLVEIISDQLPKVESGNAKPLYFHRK
Briefly: Agonist activity at human mineralocorticoid receptor relative to aldosterone. In kind it is functional.

On to `CC1=C[C@@H]([C@@H]2Oc3c(F)cc(F)cc3-c3ccc4c(c32)C(C)=CC(C)(C)N4)CCC1` (stereo in doubt; (-)-5c), for which the Efficacy came to 92% in assay [1] and 8% in assay [2].
